Test results taken from patent publication US12083178B2, “Anti-fibroblastic fluorochemical emulsion therapies” (priority 2010, dated 2024).

Experiment: Treatment of a dog with soft tissue sarcoma and lung metastasis by pulmonary aerosol administration
Format: in vivo, dog (Golden Retriever)
Conditions: agent aerosolized alone, without emulsion; general observation
Method: A 9 year old Golden Retriever with soft tissue sarcoma and extensive lung metastasis was treated with 9 mg/ml twice weekly for 10 weeks by pulmonary aerosol administration (FIG. 7A & FIG. 7B). […]

Nc1ccn([C@@H]2O[C@H](CO)[C@@H](O)C2(F)F)c(=O)n1 [Gemcitabine, gemcitabine]
necrosis in lung parenchyma and pleural metastasis: severe necrosis is always observed
